Values of other authors, collected in patent US5288707A, “Borolysine peptidomimetics” (Sandoz Ltd., priority 1990, dated 1994).

Tests used:
[1] = target: thrombin (Homo sapiens, UniProt P00734); details: reversible and irreversible inhibitors, value given as a range of magnitude
[2] = in vivo

Structure (SMILES) | inhibition in vitro [1] | LD50 value [2]
NC(N)=NCCC[C@H](NC(=O)[C@@H]1CCCN1C(=O)[C@H](N)Cc1ccccc1)C(=O)CCl [D-Phe-Pro-Arg-CH2 Cl] | ~10^-8 M | –
N=C(N)NCCC[C@@H](C=O)NC(=O)[C@@H]1CCCN1C(=O)[C@H](N)Cc1ccccc1 [D-Phe-Pro-Arginal] | ~10^-8 M | quite a low
